From patent publication US9212182B2, “Bicyclic sulfonamide compounds as sodium channel inhibitors” (AMGEN INC., priority 2013, dated 2015) come the findings set out here.

Nav 1.7, sequence (Q15858 whole entry): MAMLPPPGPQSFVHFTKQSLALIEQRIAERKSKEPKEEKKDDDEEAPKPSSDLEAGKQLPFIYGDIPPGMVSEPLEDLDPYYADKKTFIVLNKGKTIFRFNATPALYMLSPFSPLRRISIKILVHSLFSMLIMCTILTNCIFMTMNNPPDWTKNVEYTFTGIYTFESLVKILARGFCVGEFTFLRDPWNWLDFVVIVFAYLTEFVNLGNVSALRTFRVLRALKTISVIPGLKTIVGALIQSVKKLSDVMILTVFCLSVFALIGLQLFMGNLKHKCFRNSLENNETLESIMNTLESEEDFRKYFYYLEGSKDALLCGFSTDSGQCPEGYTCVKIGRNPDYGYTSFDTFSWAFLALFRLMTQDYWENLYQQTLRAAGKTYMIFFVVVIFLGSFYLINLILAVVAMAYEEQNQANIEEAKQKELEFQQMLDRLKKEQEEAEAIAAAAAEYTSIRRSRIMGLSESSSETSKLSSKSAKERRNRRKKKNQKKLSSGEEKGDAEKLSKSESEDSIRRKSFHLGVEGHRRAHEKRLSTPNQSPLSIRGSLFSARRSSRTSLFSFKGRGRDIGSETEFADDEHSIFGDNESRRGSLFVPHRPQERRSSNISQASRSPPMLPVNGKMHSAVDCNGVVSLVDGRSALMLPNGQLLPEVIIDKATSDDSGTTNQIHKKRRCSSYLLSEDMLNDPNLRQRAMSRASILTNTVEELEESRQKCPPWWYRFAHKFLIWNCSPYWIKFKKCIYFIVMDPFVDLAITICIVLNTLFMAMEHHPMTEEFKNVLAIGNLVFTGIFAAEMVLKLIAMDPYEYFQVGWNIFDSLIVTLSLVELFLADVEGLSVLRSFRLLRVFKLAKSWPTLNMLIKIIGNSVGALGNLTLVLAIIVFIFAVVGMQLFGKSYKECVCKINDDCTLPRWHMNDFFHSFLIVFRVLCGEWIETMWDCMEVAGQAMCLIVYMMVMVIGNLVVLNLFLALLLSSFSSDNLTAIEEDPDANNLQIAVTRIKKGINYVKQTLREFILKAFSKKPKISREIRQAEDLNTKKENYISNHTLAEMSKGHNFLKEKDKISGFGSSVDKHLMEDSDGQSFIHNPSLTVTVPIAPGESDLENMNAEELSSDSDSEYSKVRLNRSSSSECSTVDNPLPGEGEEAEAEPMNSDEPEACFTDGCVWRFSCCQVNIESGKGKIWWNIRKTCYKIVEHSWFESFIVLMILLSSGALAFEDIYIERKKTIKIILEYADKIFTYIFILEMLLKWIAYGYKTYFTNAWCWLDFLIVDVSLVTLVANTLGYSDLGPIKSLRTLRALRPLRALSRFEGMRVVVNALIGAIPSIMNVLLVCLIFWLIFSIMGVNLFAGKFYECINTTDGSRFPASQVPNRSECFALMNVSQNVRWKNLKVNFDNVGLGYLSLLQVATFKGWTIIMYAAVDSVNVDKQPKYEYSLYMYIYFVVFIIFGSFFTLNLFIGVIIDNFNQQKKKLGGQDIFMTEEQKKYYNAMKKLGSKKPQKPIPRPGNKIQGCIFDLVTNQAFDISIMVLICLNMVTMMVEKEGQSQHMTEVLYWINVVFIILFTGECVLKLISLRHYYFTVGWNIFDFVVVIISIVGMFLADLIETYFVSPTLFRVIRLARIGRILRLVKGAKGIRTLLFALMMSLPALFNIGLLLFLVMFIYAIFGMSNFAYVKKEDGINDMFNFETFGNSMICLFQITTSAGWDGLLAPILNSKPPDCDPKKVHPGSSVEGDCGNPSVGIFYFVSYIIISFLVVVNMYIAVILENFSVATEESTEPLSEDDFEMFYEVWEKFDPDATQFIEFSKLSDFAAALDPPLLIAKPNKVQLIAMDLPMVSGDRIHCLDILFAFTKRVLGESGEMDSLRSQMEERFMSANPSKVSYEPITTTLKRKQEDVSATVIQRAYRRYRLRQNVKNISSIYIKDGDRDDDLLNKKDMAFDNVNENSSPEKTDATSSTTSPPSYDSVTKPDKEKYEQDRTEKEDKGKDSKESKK

The first assay concerns the target Nav 1.7 (Homo sapiens (Human), UniProt Q15858). Briefly: in-vitro Nav 1.7 PX (IC50). The format is cell-based.
Settings: not given
By IC50 is commonly meant the concentration needed to halve the response being measured. Consider `COc1cc(-c2cnc(OC)c(Cl)c2)c(F)cc1-n1c(=O)ccc2cc(S(=O)(=O)Nc3ncc(F)cn3)ccc21` (atropisomer, axis not shown; (P)) [Example 1156, (P)-1-(4-(5-chloro-6-methoxy-3-pyridinyl)-5-fluoro-2-methoxyphenyl)-N-(5-fluoro-2-pyrimidinyl)-2-oxo-1,2-dihydro-6-quinolinesulfonamide], for which the IC50 is 42 nM.
Same read-out and setting: the value for `COc1cc(-c2cnc(OC)c(Cl)c2)c(F)cc1-n1c(=O)ccc2cc(S(=O)(=O)Nc3cccnn3)ccc21` (atropisomer, axis not shown; (P)) [Example 1157, (P)-1-(4-(5-chloro-6-methoxy-3-pyridinyl)-5-fluoro-2-methoxyphenyl)-2-oxo-N-3-pyridazinyl-1,2-dihydro-6-quinolinesulfonamide] was 63 nM; that for `COc1cc(OC)cc(-c2cc(OC)c(-n3c(=O)ccc4cc(S(=O)(=O)Nc5ccnc(C)n5)ccc43)cc2F)c1` (atropisomer, axis not shown; (P)) [Example 1171, (P)-1-(2-fluoro-3′,5,5′-trimethoxy-4-biphenylyl)-N-(2-methyl-4-pyrimidinyl)-2-oxo-1,2-dihydro-6-quinolinesulfonamide] was 96 nM; that for `COc1cc(-c2cccc(OC(F)F)c2)c(F)cc1-n1c(=O)ccc2cc(S(=O)(=O)Nc3cccnn3)ccc21` (atropisomer, axis not shown; (P)) [Example 1172, (P)-1-(3′-(difluoromethoxy)-2-fluoro-5-methoxy-4-biphenylyl)-2-oxo-N-3-pyridazinyl-1,2-dihydro-6-quinolinesulfonamide] was 29 nM.
Regarding `COc1cc(-c2cccc(OC(F)F)c2)c(F)cc1-n1c(=O)ccc2cc(S(=O)(=O)Nc3cc(C)ncn3)ccc21` (atropisomer, axis not shown; (P)) [Example 1173, (P)-1-(3′-(difluoromethoxy)-2-fluoro-5-methoxy-4-biphenylyl)-N-(6-methyl-4-pyrimidinyl)-2-oxo-1,2-dihydro-6-quinolinesulfonamide], the IC50 worked out at 146 nM.
The same measure, in the same setting: next, `COc1cc(Br)c(F)cc1-n1c(=O)ccc2cc(S(=O)(=O)Nc3cc(OCC4CC4)ncn3)ccc21` (atropisomer, axis not shown; (P)) [Example 1183, (P)-1-(4-bromo-5-fluoro-2-methoxyphenyl)-N-(6-(cyclopropylmethoxy)-4-pyrimidinyl)-2-oxo-1,2-dihydro-6-quinolinesulfonamide]: 2610 nM.
Same read-out and setting: the value for `COc1cc(Br)c(F)cc1-n1c(=O)ccc2cc(S(=O)(=O)Nc3cc(OCC4CCC4)ncn3)ccc21` (atropisomer, axis not shown; (P)) [Example 1184, (P)-1-(4-bromo-5-fluoro-2-methoxyphenyl)-N-(6-(cyclobutylmethoxy)-4-pyrimidinyl)-2-oxo-1,2-dihydro-6-quinolinesulfonamide] was 3360 nM; that for `COc1cc(Br)c(F)cc1-n1c(=O)ccc2cc(S(=O)(=O)Nc3cc(OCC4CCCC4)ncn3)ccc21` (atropisomer, axis not shown; (P)) [Example 1185, (P)-1-(4-bromo-5-fluoro-2-methoxyphenyl)-N-(6-(cyclopentylmethoxy)-4-pyrimidinyl)-2-oxo-1,2-dihydro-6-quinolinesulfonamide] was 6640 nM; that for `CCCOc1cc(NS(=O)(=O)c2ccc3c(ccc(=O)n3-c3cc(F)c(Br)cc3OC)c2)ncn1` (atropisomer, axis not shown; (P)) [Example 1186, (P)-1-(4-bromo-5-fluoro-2-methoxyphenyl)-2-oxo-N-(6-propoxy-4-pyrimidinyl)-1,2-dihydro-6-quinolinesulfonamide] was 246 nM.
`COc1cc(Br)c(F)cc1-n1c(=O)ccc2cc(S(=O)(=O)Nc3cc(OCC(C)C)ncn3)ccc21` (atropisomer, axis not shown; (P)) [Example 1187, (P)-1-(4-bromo-5-fluoro-2-methoxyphenyl)-N-(6-(2-methylpropoxy)-4-pyrimidinyl)-2-oxo-1,2-dihydro-6-quinolinesulfonamide] showed an IC50 of 1660 nM. Against the preceding compound, the IC50 is about 6.7-fold higher.
Turning to `COc1cc(Br)c(F)cc1-n1c(=O)ccc2cc(S(=O)(=O)Nc3cc(OC4CCC4)ncn3)ccc21` (atropisomer, axis not shown; (P)) [Example 1188, (P)-1-(4-bromo-5-fluoro-2-methoxyphenyl)-N-(6-(cyclobutyloxy)-4-pyrimidinyl)-2-oxo-1,2-dihydro-6-quinolinesulfonamide], it took 10600 nM to reach half-maximal inhibition (IC50).
Still for that read-out and setting: next, `COc1cc(Br)c(F)cc1-n1c(=O)ccc2cc(S(=O)(=O)Nc3cc(OCC4(C)CC4)ncn3)ccc21` (atropisomer, axis not shown; (P)) [Example 1189, (P)-1-(4-bromo-5-fluoro-2-methoxyphenyl)-N-(6-((1-methylcyclopropyl)methoxy)-4-pyrimidinyl)-2-oxo-1,2-dihydro-6-quinolinesulfonamide]: 8360 nM; `COc1nc(-c2ccc(F)cc2)c(Cl)cc1-n1c(=O)ccc2cc(S(=O)(=O)Nc3ccon3)ccc21` (atropisomer, axis not shown; (P)) [Example 1203, (P)-1-(5-chloro-6-(4-fluorophenyl)-2-methoxy-3-pyridinyl)-N-3-isoxazolyl-2-oxo-1,2-dihydro-6-quinolinesulfonamide]: 187 nM.
`COc1cc(-c2cccc(OC(C)C)c2)ccc1-n1c(=O)ccc2cc(S(=O)(=O)Nc3cc(C)ncn3)ccc21` (atropisomer, axis not shown; (P)) [Example 1205, (P)-1-(3-methoxy-3′-(1-methylethoxy)-4-biphenylyl)-N-(6-methyl-4-pyrimidinyl)-2-oxo-1,2-dihydro-6-quinolinesulfonamide]: inhibition was half-maximal at 290 nM (IC50).
`COc1cc(-c2cccc(OC(C)C)c2)ccc1-n1c(=O)ccc2cc(S(=O)(=O)Nc3nccc(C)n3)ccc21` (atropisomer, axis not shown; (P)) [Example 1206, (P)-1-(3-methoxy-3′-(1-methylethoxy)-4-biphenylyl)-N-(4-methyl-2-pyrimidinyl)-2-oxo-1,2-dihydro-6-quinolinesulfonamide]: the IC50 amounted to 590 nM.
On the same count and under the same terms, the value for `COc1cc(-c2cccc(OC(C)C)c2)ccc1-n1c(=O)ccc2cc(S(=O)(=O)Nc3cccnn3)ccc21` (atropisomer, axis not shown; (P)) [Example 1207, (P)-1-(3-methoxy-3′-(1-methylethoxy)-4-biphenylyl)-2-oxo-N-3-pyridazinyl-1,2-dihydro-6-quinolinesulfonamide] was 109 nM; that for `COc1cc(-c2cccc(OC(C)C)c2)ccc1-n1c(=O)ccc2cc(S(=O)(=O)Nc3cccc(F)n3)ccc21` (atropisomer, axis not shown; (P)) [Example 1208, (P)-N-(6-fluoro-2-pyridinyl)-1-(3-methoxy-3′-(1-methylethoxy)-4-biphenylyl)-2-oxo-1,2-dihydro-6-quinolinesulfonamide] was 258 nM; that for `COc1cc(-c2cccc(C(F)(F)F)c2)c(F)cc1-n1c(=O)ccc2cc(S(=O)(=O)Nc3cccc(F)n3)ccc21` (atropisomer, axis not shown; (P)) [Example 1209, (P)-1-(2-fluoro-5-methoxy-3′-(trifluoromethyl)-4-biphenylyl)-N-(6-fluoro-2-pyridinyl)-2-oxo-1,2-dihydro-6-quinolinesulfonamide] was 75 nM.
The compound `COc1cc(C2CC2)ccc1-n1c(=O)ccc2cc(S(=O)(=O)Nc3ccon3)ccc21` (atropisomer, axis not shown; (P)) [Example 1210, (P)-1-(4-cyclopropyl-2-methoxyphenyl)-N-3-isoxazolyl-2-oxo-1,2-dihydro-6-quinolinesulfonamide] returned an IC50 of 2370 nM.

Still in this assay, the particulars now being: in-vitro Nav 1.7 PX data, Table 4.
For `COc1cc(-c2cnc(OC)c(Cl)c2)c(F)cc1-n1c(=O)ccc2cc(S(=O)(=O)Nc3ncco3)ccc21` (atropisomer, axis not shown; (P)) [Example 1158, (P)-1-(4-(5-chloro-6-methoxy-3-pyridinyl)-5-fluoro-2-methoxyphenyl)-N-1,3-oxazol-2-yl-2-oxo-1,2-dihydro-6-quinolinesulfonamide], the IC50 worked out at 89 nM. This counts as double-digit nanomolar.
The compound `COc1cc(-c2cnc(OC)c(Cl)c2)c(F)cc1-n1c(=O)ccc2cc(S(=O)(=O)Nc3cc(C)ncn3)ccc21` (atropisomer, axis not shown; (P)) [Example 1159, (P)-1-(4-(5-chloro-6-methoxy-3-pyridinyl)-5-fluoro-2-methoxyphenyl)-N-(6-methyl-4-pyrimidinyl)-2-oxo-1,2-dihydro-6-quinolinesulfonamide] gave an IC50 of 51 nM.
The same measure, in the same setting: the value for `COc1cc(-c2cnc(OC)c(Cl)c2)c(F)cc1-n1c(=O)ccc2cc(S(=O)(=O)Nc3ccnc(C)n3)ccc21` (atropisomer, axis not shown; (P)) [Example 1160, (P)-1-(4-(5-chloro-6-methoxy-3-pyridinyl)-5-fluoro-2-methoxyphenyl)-N-(2-methyl-4-pyrimidinyl)-2-oxo-1,2-dihydro-6-quinolinesulfonamide] was 42 nM; that for `COc1cc(-c2cnc(OC)c(Cl)c2)c(F)cc1-n1c(=O)ccc2cc(S(=O)(=O)Nc3ccc(F)cn3)ccc21` (atropisomer, axis not shown; (P)) [Example 1161, (P)-1-(4-(5-chloro-6-methoxy-3-pyridinyl)-5-fluoro-2-methoxyphenyl)-N-(5-fluoro-2-pyridinyl)-2-oxo-1,2-dihydro-6-quinolinesulfonamide] was 20 nM.
Take `COc1cc(-c2cnc(OC)c(Cl)c2)c(F)cc1-n1c(=O)ccc2cc(S(=O)(=O)Nc3cccc(F)n3)ccc21` (atropisomer, axis not shown; (P)) [Example 1162, (P)-1-(4-(5-chloro-6-methoxy-3-pyridinyl)-5-fluoro-2-methoxyphenyl)-N-(6-fluoro-2-pyridinyl)-2-oxo-1,2-dihydro-6-quinolinesulfonamide]: it took 12 nM to reach half-maximal inhibition (IC50).
Take `COc1cc(-c2ccc(Cl)cc2)c(F)cc1-n1c(=O)ccc2cc(S(=O)(=O)Nc3ccc(F)cn3)ccc21` (atropisomer, axis not shown; (P)) [Example 1163, (P)-1-(4′-chloro-2-fluoro-5-methoxy-4-biphenylyl)-N-(5-fluoro-2-pyridinyl)-2-oxo-1,2-dihydro-6-quinolinesulfonamide]: the IC50 amounted to 159 nM.
